Patent US12435044B2, “Pyridazinone herbicides and pyridazinone intermediates used to prepare a herbicide” (FMC Corporation, priority 2018, dated 2025)

Experiments:
Assay type in all cases: in vivo
[1] = tested on: pigweed (Amaranthus retroflexus); experiment: Test C pre-/postemergence greenhouse test; settings: scale 0 to 100
Summary of the method: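 Test chemicals in a non-phytotoxic solvent mixture with surfactant; preemergence on seeds sown in silt loam, postemergence on plants 2–18 cm tall (1- to 4-leaf stage) in peat/vermiculite medium. Greenhouse for 13–21 d, then visual rating against untreated controls, 0 (no effect) to 100 (complete control).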

[2] = tested on: barnyardgrass (ECHCG; Echinochloa crus-galli); experiment: Test G preemergence, mixtures of Cpd. No. 20 with (b15C1)
From the text: (§1) This test evaluated the effect of mixtures of Cpd. No. 20 with (b15C1) on several plant species. Seeds of plant species selected from corn (ZEAMD; Zea mays, cv. ‘Pioneer 1184’), soybean (GLXMA; Glycine max, cv. Pioneer 35T58), giant foxtail (SETFA; Setaria faberi), barnyardgrass (ECHCG; Echinochloa crus-galli), large crabgrass (DIGSA; Digitaria sanguinalis), palmer amaranth (AMAPA; Amaranthus palmeri), common waterhemp (AMATU; Amaranthus rudis), and common ragweed (AMBEL; Ambrosia artemisiifolia) were planted in pots containing Tama Silt Loam soil and treated preemergence with a directed soil spray using test chemicals formulated in a non-phytotoxic solvent mixture which included a surfactant.
(§2) Treated plants and untreated controls were maintained in a greenhouse for approximately 21 d, after which time all treated plants were compared to untreated controls and visually evaluated for injury. Plant response ratings, summarized in Table G, are based on a 0 to 100 scale where 0 is no effect and 100 is complete control. A dash (-) response means no test result. Test results are presented as a mean of 4 reps.

[3] = tested on: common ragweed (AMBEL; Ambrosia artemisiifolia); experiment: as above
From the text: as §1, §2

[4] = tested on: common waterhemp (AMATU; Amaranthus rudis); experiment: as above
From the text: as §1, §2

[5] = tested on: corn (ZEAMD; Zea mays, cv. ‘Pioneer 1184’); experiment: as above
From the text: as §1, §2

[6] = tested on: giant foxtail (SETFA; Setaria faberi); experiment: as above
From the text: as §1, §2

[7] = tested on: large crabgrass (DIGSA; Digitaria sanguinalis); experiment: as above
From the text: as §1, §2

[8] = tested on: palmer amaranth (AMAPA; Amaranthus palmeri); experiment: as above
From the text: as §1, §2

[9] = tested on: soybean (GLXMA; Glycine max, cv. Pioneer 35T58); experiment: as above
From the text: as §1, §2

[10] = tested on: corn (ZEAMD; Zea mays, cv. ‘Pioneer 1184’); experiment: Test of Tables L1 to L3, postemergence, mixtures of Cpd. No. 20 with benoxacor, isoxadifen-ethyl, or cloquintocet-mexyl; settings: for Plant response rating (0 to 100 scale) ZEAMD: approx. 14 d
From the text: (§3) This test evaluated the effect of mixtures of Cpd. No. 20 with benoxacor, isoxadifen-ethyl, or cloquintocet-mexyl on several plant species. Seeds of plant species selected from corn (ZEAMD; Zea mays, cv. ‘Pioneer 1184’), soybean (GLXMA; Glycine max, cv. Pioneer 35T58), winter wheat (TRZAW; Triticum aetivum, cv. Arezzo), rice (ORYSS; Oryza sativa, cv. M202), and giant foxtail (SETFA; Setaria faberi) were planted in pots containing Redi-Earth® planting medium (Scotts Company, 14111 Scottslawn Road, Marysville, Ohio 43041) comprising spaghnum peat moss, vermiculite, wetting agent and starter nutrients and treated postemergence using test chemicals formulated in a non-phytotoxic solvent mixture which included a surfactant. Plants ranged in height from 7 to 10 cm and were in the one- to two-leaf stage for the postemergence treatment. Treated plants and untreated controls were maintained in a greenhouse for approximately 14 d, after which time all treated plants were compared to untreated controls and visually evaluated for injury. Plant response ratings, summarized in Tables L1 to L3, are based on a 0 to 100 scale where 0 is no effect and 100 is complete control. A dash (-) response means no test result. Test results are presented as a mean of 4 reps.

[11] = tested on: rice (ORYSS; Oryza sativa, cv. M202); experiment: as above; settings: for Plant response rating (0 to 100 scale) ORYSS: approx. 14 d
From the text: as §3

[12] = Cpd. No. 20 alone 125 g a.i./ha
[13] = Cpd. No. 20 alone 250 g a.i./ha
[14] = Cpd. No. 20 alone 375 g a.i./ha

Structure (SMILES): Cc1ccc2ccc(C)c(-c3c(O)c(Cl)nn(C)c3=O)c2c1 [Cpd. No. 20, 6-chloro-4-(2,7-dimethyl-1-naphthalenyl)-5-hydroxy-2-methyl-3(2H)-pyridazinone]
- Plant response rating, Pigweed ([1]; Postemergence, 16 g ai/ha): 90
- Plant response rating, Pigweed ([1]; Postemergence, 31 g ai/ha): 95
- Plant response rating, Pigweed ([1]; Postemergence, 62 g ai/ha): 95
- Plant response rating, Pigweed ([1]; Postemergence, 125 g ai/ha): 98
- Plant response rating, Pigweed ([1]; Preemergence, 31 g ai/ha): 100
- Plant response rating, Pigweed ([1]; Preemergence, 61 g ai/ha): 100
- Plant response rating, Pigweed ([1]; Preemergence, 62 g ai/ha): 100
- Plant response rating, Pigweed ([1]; Preemergence, 125 g ai/ha): 100
- Plant response rating (0 to 100 scale) ([2]; Cpd. No. 20 16 g a.i./ha alone): 21
- Plant response rating (0 to 100 scale) ([2]; Cpd. No. 20 31 g a.i./ha alone): 51
- Plant response rating (0 to 100 scale) ([2]; Cpd. No. 20 62 g a.i./ha alone): 70
- Plant response rating (0 to 100 scale) ([3]; Cpd. No. 20 16 g a.i./ha alone): 48
- Plant response rating (0 to 100 scale) ([3]; Cpd. No. 20 31 g a.i./ha alone): 73
- Plant response rating (0 to 100 scale) ([3]; Cpd. No. 20 62 g a.i./ha alone): 74
- Plant response rating (0 to 100 scale) ([4]; Cpd. No. 20 16 g a.i./ha alone): 55
- Plant response rating (0 to 100 scale) ([4]; Cpd. No. 20 31 g a.i./ha alone): 96
- Plant response rating (0 to 100 scale) ([4]; Cpd. No. 20 62 g a.i./ha alone): 99
- Plant response rating (0 to 100 scale) ([5]; Cpd. No. 20 16 g a.i./ha alone): 0
- Plant response rating (0 to 100 scale) ([5]; Cpd. No. 20 31 g a.i./ha alone): 0
- Plant response rating (0 to 100 scale) ([5]; Cpd. No. 20 62 g a.i./ha alone): 0
- Plant response rating (0 to 100 scale) ([6]; Cpd. No. 20 16 g a.i./ha alone): 66
- Plant response rating (0 to 100 scale) ([6]; Cpd. No. 20 31 g a.i./ha alone): 88
- Plant response rating (0 to 100 scale) ([6]; Cpd. No. 20 62 g a.i./ha alone): 74
- Plant response rating (0 to 100 scale) ([7]; Cpd. No. 20 16 g a.i./ha alone): 9
- Plant response rating (0 to 100 scale) ([7]; Cpd. No. 20 31 g a.i./ha alone): 11
- Plant response rating (0 to 100 scale) ([7]; Cpd. No. 20 62 g a.i./ha alone): 25
- Plant response rating (0 to 100 scale) ([8]; Cpd. No. 20 16 g a.i./ha alone): 73
- Plant response rating (0 to 100 scale) ([8]; Cpd. No. 20 31 g a.i./ha alone): 70
- Plant response rating (0 to 100 scale) ([8]; Cpd. No. 20 62 g a.i./ha alone): 78
- Plant response rating (0 to 100 scale) ([9]; Cpd. No. 20 16 g a.i./ha alone): 0
- Plant response rating (0 to 100 scale) ([9]; Cpd. No. 20 31 g a.i./ha alone): 18
- Plant response rating (0 to 100 scale) ([9]; Cpd. No. 20 62 g a.i./ha alone): 24
- ZEAMD plant response rating, 0 to 100 scale ([10]; 125 g a.i./ha): 8
- ZEAMD plant response rating, 0 to 100 scale ([10]; 250 g a.i./ha): 1
- ZEAMD plant response rating, 0 to 100 scale ([10]; 375 g a.i./ha): 34
- Plant response rating (0 to 100 scale) ZEAMD [10, 12]: 8
- Plant response rating (0 to 100 scale) ZEAMD [10, 13]: 1
- Plant response rating (0 to 100 scale) ZEAMD [10, 14]: 34
- ORYSS plant response rating, 0 to 100 scale ([11]; 125 g a.i./ha): 5
- ORYSS plant response rating, 0 to 100 scale ([11]; 250 g a.i./ha): 18
- ORYSS plant response rating, 0 to 100 scale ([11]; 375 g a.i./ha): 23
- Plant response rating (0 to 100 scale) ORYSS [11, 12]: 5
- Plant response rating (0 to 100 scale) ORYSS [11, 13]: 18
- Plant response rating (0 to 100 scale) ORYSS [11, 14]: 23
